# Results as given in the supplement of paper PMC10307832.
# Experiments:
# Assay in all cases: relative viability (nuclei count vs DMSO), 5 days (fraction); higher = more cells survive
# MK-2206 + Dasatinib = compound: NC1(c2ccc(-c3nc4ccn5c(=O)[nH]nc5c4cc3-c3ccccc3)cc2)CCC1 [MK-2206] + Cc1nc(Nc2ncc(C(=O)Nc3c(C)cccc3Cl)s2)cc(N2CCN(CCO)CC2)n1 [Dasatinib] (partner 0.075 µM)
# Summary of the method: (§1)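 Relative viability is defined as nuclei in treated wells over nuclei in vehicle wells. Duplicate plates were run and medians reported. Lung cancer cell lines in 1536-well plates were dosed by pin tool one day after seeding, with one drug or with a fixed anchor-drug dose plus five library-drug doses (not always all listed) in √10 steps, and nuclei were counted after 5 days.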
# MK-2206 + OSI-027 = compound: NC1(c2ccc(-c3nc4ccn5c(=O)[nH]nc5c4cc3-c3ccccc3)cc2)CCC1 [MK-2206] + COc1cccc2cc(-c3nc([C@H]4CC[C@H](C(=O)O)CC4)n4ncnc(N)c34)[nH]c12 [OSI-027] (partner 0.5 µM)
# Summary of the method: as §1
# MK-2206 + Alpelisib = compound: NC1(c2ccc(-c3nc4ccn5c(=O)[nH]nc5c4cc3-c3ccccc3)cc2)CCC1 [MK-2206] + Cc1nc(NC(=O)N2CCC[C@H]2C(N)=O)sc1-c1ccnc(C(C)(C)C(F)(F)F)c1 [Alpelisib] (partner 2 µM)
# Summary of the method: as §1
# MK-2206 + Lapatinib = compound: NC1(c2ccc(-c3nc4ccn5c(=O)[nH]nc5c4cc3-c3ccccc3)cc2)CCC1 [MK-2206] + CS(=O)(=O)CCNCc1ccc(-c2ccc3ncnc(Nc4ccc(OCc5cccc(F)c5)c(Cl)c4)c3c2)o1 [Lapatinib] (partner 2 µM)
# Summary of the method: as §1
# MK-2206 + Trametinib = compound: NC1(c2ccc(-c3nc4ccn5c(=O)[nH]nc5c4cc3-c3ccccc3)cc2)CCC1 [MK-2206] + CC(=O)Nc1cccc(-n2c(=O)n(C3CC3)c(=O)c3c(Nc4ccc(I)cc4F)n(C)c(=O)c(C)c32)c1 [Trametinib] (partner 0.02 µM)
# Summary of the method: as §1
Cell Line,relative viability (MK-2206 + Dasatinib; first compound 0.01 µM),relative viability (MK-2206 + Dasatinib; first compound 0.03162 µM),relative viability (MK-2206 + Dasatinib; first compound 0.3162 µM),relative viability (MK-2206 + Dasatinib; first compound 1 µM),relative viability (MK-2206 + OSI-027; first compound 0.01 µM),relative viability (MK-2206 + OSI-027; first compound 0.03162 µM),relative viability (MK-2206 + OSI-027; first compound 1 µM),relative viability (MK-2206 + Alpelisib; first compound 0.01 µM),relative viability (MK-2206 + Alpelisib; first compound 0.03162 µM),relative viability (MK-2206 + Alpelisib; first compound 0.3162 µM),relative viability (MK-2206 + Alpelisib; first compound 1 µM),relative viability (MK-2206 + Lapatinib; first compound 0.01 µM),relative viability (MK-2206 + Lapatinib; first compound 0.03162 µM),relative viability (MK-2206 + Lapatinib; first compound 0.3162 µM),relative viability (MK-2206 + Lapatinib; first compound 1 µM),relative viability (MK-2206 + Trametinib; first compound 0.01 µM),relative viability (MK-2206 + Trametinib; first compound 0.03162 µM),relative viability (MK-2206 + Trametinib; first compound 0.3162 µM),relative viability (MK-2206 + Trametinib; first compound 1 µM),relative viability (MK-2206 + OSI-027; first compound 0.3162 µM)
201T,0.623,0.581,0.553,0.525,0.772,0.766,0.494,0.97,1.05,0.958,0.958,0.988,1.12,1.02,1.12,0.688,0.753,0.743,0.724,–
A549,–,–,–,–,–,–,–,0.841,0.791,0.534,0.529,0.874,0.988,0.932,0.81,–,–,–,–,–
A-427,0.698,0.735,0.698,0.596,0.529,0.47,0.372,1.12,1.12,1.06,1.08,1.11,1.03,1.09,1.12,0.819,0.748,0.666,0.62,0.439
ABC-1,0.499,0.534,0.388,0.399,0.552,0.494,0.379,0.964,0.915,0.848,0.812,1.32,1.29,1.08,1.13,–,–,–,–,0.381
BEN,0.265,0.332,0.321,0.362,0.3,0.301,0.297,0.998,1.11,1.08,1.1,0.679,0.658,0.697,0.657,1.17,1.2,1.23,1.05,0.271
CAL-12T,0.486,0.504,0.355,0.345,0.67,0.554,0.485,1.04,1.03,1.05,0.895,0.682,0.698,0.667,0.454,0.406,0.307,0.307,0.313,0.452
COR-L23,0.452,0.527,0.494,0.536,0.793,0.712,0.611,0.82,0.904,0.681,0.686,0.949,1.03,0.92,1.1,0.547,0.558,0.522,0.476,0.689
COR-L 105,0.411,0.409,0.305,0.289,0.497,0.713,0.556,0.98,0.951,0.825,0.677,0.382,0.42,0.317,0.335,0.451,0.439,0.381,0.433,0.531
Calu-6,–,–,–,–,–,–,–,1.13,1.01,0.994,0.909,1.05,1.13,1.09,0.974,–,–,–,–,–
